Results reported in PMC11018872, “Dynamic inter-domain transformations mediate the allosteric regulation of human 5, 10-methylenetetrahydrofolate reductase” (Nature Communications, 2024).

Legend:
Type in all cases: binding
[1] = target: T1, 5,10-methylenetetrahydrofolate reductase (MTHFR) (Homo sapiens, UniProt P42898); test: ITC; cryo-EM structure at […] Å; DSF; HPLC activity assay
T1 construct: MTHFRFL aa 1–656

[2] = target: T1, 5,10-methylenetetrahydrofolate reductase (MTHFR); test: cryo-EM structure at […] Å (SAM-bound state)
[3] = target: T1, 5,10-methylenetetrahydrofolate reductase (MTHFR); test: ITC; cryo-EM structures at […] and […] Å

T1 sequence (P42898 whole entry, the tested form may be a part): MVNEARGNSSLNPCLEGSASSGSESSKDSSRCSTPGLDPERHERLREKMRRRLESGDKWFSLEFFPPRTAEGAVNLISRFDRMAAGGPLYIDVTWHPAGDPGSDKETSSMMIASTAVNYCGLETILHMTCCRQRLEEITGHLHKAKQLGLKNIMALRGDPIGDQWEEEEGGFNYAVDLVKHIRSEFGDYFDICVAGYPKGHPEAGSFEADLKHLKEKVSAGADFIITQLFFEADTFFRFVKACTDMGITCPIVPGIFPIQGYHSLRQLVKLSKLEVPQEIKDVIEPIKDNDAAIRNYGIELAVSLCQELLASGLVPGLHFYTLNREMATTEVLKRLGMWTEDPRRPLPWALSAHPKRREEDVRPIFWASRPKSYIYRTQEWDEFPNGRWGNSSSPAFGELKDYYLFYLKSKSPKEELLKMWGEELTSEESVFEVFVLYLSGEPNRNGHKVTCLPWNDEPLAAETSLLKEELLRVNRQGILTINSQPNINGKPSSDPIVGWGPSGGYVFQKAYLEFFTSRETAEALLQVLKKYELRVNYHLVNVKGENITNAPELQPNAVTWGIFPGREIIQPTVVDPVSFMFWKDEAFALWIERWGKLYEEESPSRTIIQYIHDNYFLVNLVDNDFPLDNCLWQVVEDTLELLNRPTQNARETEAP

C[S+](CC[C@H](N)C(=O)[O-])C[C@H]1O[C@@H](n2cnc3c(N)ncnc32)[C@H](O)[C@@H]1O (stereo partly drawn) [SAM, S-adenosyl-L-methionine]
Kd [1]: 860 to 990 nM

Cc1cc2nc3c(=O)[nH]c(=O)nc-3n(C[C@H](O)[C@H](O)[C@H](O)COP(=O)(O)OP(=O)(O)OC[C@H]3O[C@@H](n4cnc5c(N)ncnc54)[C@H](O)[C@@H]3O)c2cc1C [FAD, flavin adenine dinucleotide]
cryo-EM structure at 2.9 Å (SAM-bound state) [2]: FAD was found in both CD active sites of the homodimer (Fig. 2c) with clear electron densities

Nc1ncnc2c1ncn2[C@@H]1O[C@H](CSCC[C@H](N)C(=O)O)[C@@H](O)[C@H]1O [SAH, S-adenosyl-L-homocysteine]
Kd [3]: 380 to 390 nM
